# Data: ChEMBL document CHEMBL1201862, “PubChem BioAssay data set” (2004)
# The source made the active and inactive calls.
# Assays:
# [1] = biological target: T1, Polyadenylate-binding protein 1 (Homo sapiens, UniProt P11940); test: MLLE binding blockers, Cy5 peptide tracer – biochemical, fluorescence polarization, Cy5-PAM2 peptide, secondary, miRNA deadenylation inhibitor project, dose response (AID 602260); assay type: functional; details: read-out: IC50_Mean
# [2] = biological target: T1, Polyadenylate-binding protein 1; test: MLLE domain peptide-binding blockers, IC50 – biochemical, fluorescence polarization, FITC-PAM2 peptide, dose response (AID 602259); assay type: functional; details: read-out: IC50_Mean
# Nonstructural protein 1 = Nonstructural protein 1 (Influenza A virus, UniProt Q194T2); assay type: functional, Influenza A virus (A/California/07/2009(H1N1))
# Chain of Nonstructural protein 1 (Q194T2 whole entry): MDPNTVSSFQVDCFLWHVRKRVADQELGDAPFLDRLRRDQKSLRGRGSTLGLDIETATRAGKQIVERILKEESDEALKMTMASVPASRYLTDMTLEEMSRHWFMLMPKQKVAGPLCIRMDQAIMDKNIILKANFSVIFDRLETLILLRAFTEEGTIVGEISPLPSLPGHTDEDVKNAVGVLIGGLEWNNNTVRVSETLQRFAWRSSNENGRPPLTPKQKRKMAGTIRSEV
# [3] = P. falciparum Dd2 growth inhibitors, dose response, SYBR Green, cherry-picked samples (AID 1159567); assay type: functional, cell-based
# Leucine aminopeptidase = biological target: T2, Leucine aminopeptidase (Plasmodium falciparum 3D7, UniProt Q8IL11); test: P. falciparum M17LAP inhibitors, primary screen, biochemical, fluorogenic H-Leu-NHMec substrate, 1536-well (AID 1619); assay type: functional
# T2 sequence (Q8IL11 whole entry): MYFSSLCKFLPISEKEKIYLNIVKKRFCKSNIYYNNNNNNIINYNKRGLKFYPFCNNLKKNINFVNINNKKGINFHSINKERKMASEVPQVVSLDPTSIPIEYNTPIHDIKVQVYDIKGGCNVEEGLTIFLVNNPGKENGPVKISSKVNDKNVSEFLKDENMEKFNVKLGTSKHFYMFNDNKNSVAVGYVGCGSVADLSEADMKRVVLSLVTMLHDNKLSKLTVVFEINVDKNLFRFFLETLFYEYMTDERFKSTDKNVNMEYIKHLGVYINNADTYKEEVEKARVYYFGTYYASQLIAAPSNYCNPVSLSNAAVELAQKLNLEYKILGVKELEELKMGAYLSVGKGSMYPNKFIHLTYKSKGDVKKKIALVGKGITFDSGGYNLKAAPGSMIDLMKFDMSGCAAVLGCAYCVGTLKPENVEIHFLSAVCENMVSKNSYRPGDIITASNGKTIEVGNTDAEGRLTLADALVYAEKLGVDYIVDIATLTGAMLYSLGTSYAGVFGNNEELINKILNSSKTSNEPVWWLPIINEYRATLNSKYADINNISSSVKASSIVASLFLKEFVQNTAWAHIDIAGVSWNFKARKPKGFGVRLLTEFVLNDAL
# [4] = viability of uninfected HEp-2 cells – cell-based, HTS, cytotoxicity control for RSV inhibitor project, dose response (AID 2410); assay type: functional; details: human respiratory syncytial virus
# H9c2 = test: cells; assay type: functional, cell-based; details: Rattus norvegicus, H9c2, Myocardium;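 also: confirmatory concentration-response retest of ultra-high-throughput screening hits for modulation of myocardial damage; cell death induced by hydrogen peroxide oxidative stress; compound pretreatment for 60 min then peroxide exposure for 2 h; potency is for protecting the cells against peroxide damage rather than for killing them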
# [5] = luciferase reporter signal suppression in cells – H4 neuroglioma cells, luminescence, dose response (AID 1990); assay type: functional, cell-based
# [6] = Luminescence Cell-Based Dose Response HTS to Identify Inhibitors of 5'UTR Stem-Loop Driven Prion Protein mRNA Translation in H4 Neuroglioblastoma Cells. [Related pubchem assays: 1827 (Project Summary), 1813 (Primary HTS)]; assay type: functional
# [7] = biological target: Induced myeloid leukemia cell differentiation protein Mcl-1 (Homo sapiens, UniProt Q07820); assay type: functional
# Chain of Induced myeloid leukemia cell differentiation protein Mcl-1 (Q07820 whole entry): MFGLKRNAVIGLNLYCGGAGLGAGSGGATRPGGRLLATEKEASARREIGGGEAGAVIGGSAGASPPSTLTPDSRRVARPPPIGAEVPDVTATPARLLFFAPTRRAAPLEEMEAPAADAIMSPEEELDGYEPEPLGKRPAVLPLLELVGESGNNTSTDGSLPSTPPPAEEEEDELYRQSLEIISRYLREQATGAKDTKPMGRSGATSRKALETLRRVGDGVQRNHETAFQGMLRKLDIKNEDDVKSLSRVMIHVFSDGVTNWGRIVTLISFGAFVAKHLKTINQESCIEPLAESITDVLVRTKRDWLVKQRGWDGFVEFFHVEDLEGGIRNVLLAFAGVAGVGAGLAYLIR
# [8] = system: Streptococcus sp. 'group A'; test: Streptococcus pyogenes SK(-)GAS viability under kanamycin – luminescence, BacTiterGlo, confirmation, counter-screen for streptokinase expression inhibitor project, dose response (AID 1900); assay type: functional, organism-based
# Streptokinase A = biological target: T3, Streptokinase A (Streptococcus pyogenes serotype M1, UniProt P10520); test: viability-normalized secreted streptokinase activity reduction – plasminogen activation absorbance, OD405, dose response (AID 1914); assay type: functional, Streptococcus pyogenes M1 GAS;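 also: secreted streptokinase activity via plasminogen activation per viability signal from cell pellet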
# T3 sequence (P10520 whole entry): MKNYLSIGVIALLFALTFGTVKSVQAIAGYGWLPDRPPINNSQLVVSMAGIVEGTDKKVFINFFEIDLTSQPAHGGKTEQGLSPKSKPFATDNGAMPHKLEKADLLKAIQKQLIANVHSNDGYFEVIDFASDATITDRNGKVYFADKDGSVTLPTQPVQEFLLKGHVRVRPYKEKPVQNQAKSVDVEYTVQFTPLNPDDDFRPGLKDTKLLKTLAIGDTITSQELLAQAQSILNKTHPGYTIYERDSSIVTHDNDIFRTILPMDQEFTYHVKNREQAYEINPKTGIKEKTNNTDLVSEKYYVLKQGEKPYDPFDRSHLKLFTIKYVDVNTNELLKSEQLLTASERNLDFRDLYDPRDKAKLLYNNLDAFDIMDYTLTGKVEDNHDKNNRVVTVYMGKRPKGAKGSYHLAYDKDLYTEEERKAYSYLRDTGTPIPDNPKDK
# Streptococcus = test: GAS UMAA2166 growth inhibition – luminescence, BacTiterGlo, counter-screen for streptokinase expression inhibitor project, dose response (AID 1915); assay type: functional, organism-based;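 also: potency for reduction of bacterial viability or growth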
# [9] = Trypanosoma cruzi growth suppression in host cells – NIH3T3 host cells, beta-gal luminescence, confirmation (AID 2044); assay type: functional, cell-based;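 also: intracellular parasites grown in NIH/3T3 mouse fibroblasts as host cells; luminescent beta-galactosidase reporter signal from transgenic T. cruzi replicating inside host cells; inhibitors lower the luminescence signal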
# [10] = NIH3T3 cell viability loss – ATP luminescence, mouse fibroblasts, counter-screen, dose response (AID 2010); assay type: functional, cell-based;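 also: cells exposed to compound for about 90 hours before reading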
# [11] = blockers of HIV-1 envelope-mediated cell-cell fusion – cherry-pick, dose response (AID 652057); assay type: functional, cell-based
# [12] = HIV-1 AD8 envelope cell-cell fusion blockers – cherry-pick, dose response (AID 652062); assay type: functional, cell-based;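 also: luciferase signal from cell-cell fusion driven by HIV-1 clade B AD8 Env; potency is for inhibitors of fusion seen as a drop in luminescence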
# [13] = Luminescence Cell-Based Dose Retest to Confirm Inhibitors of Cancer Stem Cells. [Related pubchem assays (depositor defined):AID2717, AID2721]; assay type: functional; details: Homo sapiens
# [14] = biological target: T4, Corticotropin-releasing factor receptor 2/Corticotropin-releasing factor-binding protein (Homo sapiens, UniProt P24387+Q13324); test: Dose Response confirmation of uHTS hits for small molecule antagonists of the CRF-binding protein and CRF-R2 receptor complex.; assay type: functional; details: read-out: IC50_Mean
# T4 sequence (Q13324 whole entry): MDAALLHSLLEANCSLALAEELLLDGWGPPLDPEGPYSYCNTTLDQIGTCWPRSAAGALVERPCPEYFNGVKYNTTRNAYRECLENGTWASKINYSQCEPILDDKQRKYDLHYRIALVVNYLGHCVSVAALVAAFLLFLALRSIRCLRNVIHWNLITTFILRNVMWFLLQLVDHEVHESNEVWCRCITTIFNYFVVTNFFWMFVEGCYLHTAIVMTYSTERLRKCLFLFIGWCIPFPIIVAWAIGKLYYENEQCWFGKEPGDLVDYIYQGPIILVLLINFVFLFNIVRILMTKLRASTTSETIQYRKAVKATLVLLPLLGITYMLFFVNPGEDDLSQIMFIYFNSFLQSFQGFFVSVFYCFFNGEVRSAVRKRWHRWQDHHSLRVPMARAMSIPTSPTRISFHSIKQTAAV
# T4 sequence (P24387 whole entry): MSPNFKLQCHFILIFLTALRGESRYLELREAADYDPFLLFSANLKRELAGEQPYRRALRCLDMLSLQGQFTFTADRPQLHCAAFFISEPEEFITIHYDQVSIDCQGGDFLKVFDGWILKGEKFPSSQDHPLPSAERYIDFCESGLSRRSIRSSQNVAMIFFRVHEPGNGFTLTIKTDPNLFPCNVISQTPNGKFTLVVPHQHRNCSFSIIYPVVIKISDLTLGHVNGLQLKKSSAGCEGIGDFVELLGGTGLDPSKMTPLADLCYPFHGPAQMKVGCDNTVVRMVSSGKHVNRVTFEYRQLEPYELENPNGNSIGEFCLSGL
# [15] = biological target: T4, Corticotropin-releasing factor receptor 2/Corticotropin-releasing factor-binding protein; test: activators of CRF receptor 2 with binding protein – uHTS hits, confirmation (AID 602473); assay type: functional; details: read-out: EC50_Mean
# T1 sequence (P11940 whole entry, the tested form may be a part): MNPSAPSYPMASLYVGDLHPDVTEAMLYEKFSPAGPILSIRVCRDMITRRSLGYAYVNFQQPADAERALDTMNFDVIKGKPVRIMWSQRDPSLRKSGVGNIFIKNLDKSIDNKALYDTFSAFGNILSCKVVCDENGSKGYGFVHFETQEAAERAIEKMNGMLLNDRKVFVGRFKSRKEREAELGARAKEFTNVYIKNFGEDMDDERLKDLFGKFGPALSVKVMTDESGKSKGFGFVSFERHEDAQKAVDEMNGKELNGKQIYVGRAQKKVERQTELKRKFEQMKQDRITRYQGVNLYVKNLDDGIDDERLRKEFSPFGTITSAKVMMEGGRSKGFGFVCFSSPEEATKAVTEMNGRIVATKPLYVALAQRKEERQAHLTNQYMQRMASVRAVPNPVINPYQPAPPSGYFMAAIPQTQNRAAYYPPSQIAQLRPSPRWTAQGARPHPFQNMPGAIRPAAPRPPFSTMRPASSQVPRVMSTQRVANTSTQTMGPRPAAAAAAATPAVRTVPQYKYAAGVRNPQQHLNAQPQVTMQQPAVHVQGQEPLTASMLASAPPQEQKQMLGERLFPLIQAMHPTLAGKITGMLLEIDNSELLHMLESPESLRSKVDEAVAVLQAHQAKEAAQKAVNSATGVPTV
compound,measurement,setting,value
O=C1CCCC(=O)C1=NNc1ccc2ncsc2c1,IC50,[1],> 66 µM (inactive)
same,IC50,[2],> 66 µM (inactive)
CCOC(=O)N1CCN(C2=C(NS(=O)(=O)c3ccc(C)cc3)C(=O)c3ccccc3C2=O)CC1,IC50,Nonstructural protein 1,21.5 µM (active)
C[C@@H]1CN([C@H](C)CO)C(=O)c2cccc(NC(=O)Nc3cccc4ccccc34)c2O[C@H]1CN(C)C(=O)NC1CCCCC1,AC50,[3],4.98 µM (active)
COc1cc(OC)c2ccc(=O)oc2c1C(CCN1CCN(c2ccccc2)CC1)c1ccc(N(C)C)cc1 (configuration not stated),IC50,Nonstructural protein 1,32.5 µM (active)
O=C(NC(=S)NNS(=O)(=O)c1ccccc1)c1ccccc1[N+](=O)[O-],IC50,Leucine aminopeptidase,29.9 µM (active)
same,IC50,[1],> 66 µM (inactive)
same,IC50,[2],> 66 µM (inactive)
Oc1nc2cccc(F)c2n2cccc12,CC50,[4],30 µM (active)
same,IC50,H9c2,> 79 µM (inactive)
C/C(=N\NC(=O)c1ccccc1-n1cccc1)c1ccccn1,IC50,H9c2,38.8 µM (inactive)
CCn1cc(C(=O)N2CCN(c3ccc([N+](=O)[O-])cc3)CC2)c(=O)c2ccc(C)nc21,EC50,[5],21.6 µM (active)
same,EC50,[6],> 120 µM (not active)
CCCN(CC(=O)Nc1ccc(F)c(F)c1F)C(=O)CCc1nc(O)c2ccccc2n1,IC50,H9c2,9.51 µM (active)
COc1ccc(C(=O)COC(=O)C(CCCCN2C(=O)C3C4C=CC(C4)C3C2=O)N2C(=O)C3C4C=CC(C4)C3C2=O)cc1 (configuration not stated),IC50,H9c2,> 79 µM (inactive)
C[C@@H]1CN([C@@H](C)CO)C(=O)Cc2cc(NC(=O)NC3CCCCC3)ccc2O[C@H]1CN(C)C(=O)Nc1cccc2ccccc12,AC50,[3],5.11 µM (active)
COC(=O)c1sc(=S)n(-c2cc(F)ccc2F)c1N,IC50,[1],> 66 µM (inactive)
same,IC50,[2],> 66 µM (inactive)
Cc1cc2nc(-c3ccc(SCC(=O)N4CCN(C(=O)c5ccco5)CC4)nc3)[nH]c2cc1C,IC50,[7],3.63 µM (active)
COC(=O)c1ccccc1NC(=S)NC(=O)c1ccc2c(c1)OCO2,IC50,[1],> 66 µM (inactive)
same,IC50,[2],> 66 µM (inactive)
COc1cccc(Nc2ncnc3[nH]cnc23)c1,IC50,Leucine aminopeptidase,95.1 µM (active)
O=C(CSc1nnc(-c2cccnc2)n1Cc1ccco1)c1ccccc1,IC50,H9c2,32.4 µM (inactive)
O=C(CSc1ccc(-c2ccccn2)nn1)NCc1ccc(Cl)cc1,IC50,Nonstructural protein 1,41.9 µM (active)
O=C(Nc1nnc(C2CC2)s1)c1cc(-c2ccccc2)nn1-c1ccccc1,CC50,[4],13.1 µM (active)
same,EC50,[8],10.1 µM (active)
same,EC50,Streptokinase A,8.32 µM (active)
same,EC50,Streptococcus,20.8 µM (active)
same,IC50,H9c2,12.3 µM (active)
CN(C)c1ccc2c(c1)[C@@H]1C[C@@H](CC(=O)NCc3cc(F)ccc3F)O[C@@H](CO)[C@@H]1O2,AC50,[3],13.3 µM (active)
Cc1ccc(-n2cnn(-c3ccc([N+](=O)[O-])cc3[N+](=O)[O-])c2=O)cc1,EC50,[9],1.54 µM (active)
same,EC50,[10],> 60 µM (not active)
same,IC50,Nonstructural protein 1,> 100 µM (active)
CCCCCc1ccc(C(=O)CCCC)c(S)n1,IC50,[1],> 66 µM (inactive)
same,IC50,[2],> 66 µM (inactive)
CC1CCN(c2ccccc2NC(=S)NC(=O)c2ccco2)CC1,IC50,[1],> 66 µM (inactive)
same,IC50,[2],> 66 µM (inactive)
COc1ccc(N2CCN(C(=O)CCC(=O)N3CCOc4ccc(Cl)cc43)CC2)cc1,IC50,Nonstructural protein 1,> 100 µM (active)
COC(=O)/C(=C(O)\C=C\c1ccccc1[N+](=O)[O-])c1nc2ccccc2[nH]1,IC50,H9c2,> 79 µM (inactive)
CC(C)Oc1ccc(C(=O)NC2(C(F)(F)F)N=C3SCCN3C2=O)cc1 (configuration not stated),IC50,[1],> 66 µM (inactive)
same,IC50,[2],> 66 µM (inactive)
C[C@H](CO)N1C[C@H](C)[C@H](CN(C)S(=O)(=O)c2cccs2)Oc2ccc(NC(=O)Cc3cn(C)c4ccccc34)cc2CC1=O,AC50,[11],0.883 µM (active)
same,AC50,[12],12.5 µM (active)
Cc1cc(C(=O)COC(=O)c2ccc[nH]c2=O)c(C)n1C1CC1,IC50,Leucine aminopeptidase,13.3 µM (active)
O=C(O)c1ccc(N/N=C/C2=C(N3CCOCC3)C(=C\c3ccccc3)/CC2)cc1,IC50,[7],4.44 µM (active)
O=C(O)CCCCCN1C(=O)/C(=C\c2ccc(-c3ccc(Cl)cc3)o2)SC1=S,IC50,[7],1.27 µM (active)
O=C(Cn1nnc2ccccc2c1=O)Nc1ccc2c(c1)CCC2,IC50,Leucine aminopeptidase,1.51 µM (active)
CCCCn1nc(NC(=O)c2cccs2)c2cc3ccccc3nc21,CC50,[4],25.5 µM (active)
same,IC50,H9c2,> 79 µM (inactive)
O=C(c1ccc2[nH]c3c(c2c1)CCCC3)N1CCN(c2ccc(F)cc2)CC1,IC50,Nonstructural protein 1,> 100 µM (active)
O=C(c1ccc(Cl)s1)N1CCN(c2nc3ccccc3s2)CC1,AC50,[11],55.7 µM (active)
same,AC50,[12],11.9 µM (active)
CN1C(=O)/C(=C/c2cc(N=Nc3ccccc3)ccc2O)SC1=S,AC50,[13],644 nM (active)
same,IC50,Nonstructural protein 1,14.5 µM (active)
CCOc1ccc(NC(=O)CSc2nnnn2CC(=O)O)cc1,IC50,Leucine aminopeptidase,6.69 µM (active)
Cc1ccc(CCNC(=O)C2CCCN(S(=O)(=O)N3CC(C)CC(C)C3)C2)cc1 (configuration not stated),IC50,[14],> 47.1 µM (inactive)
same,EC50,[15],> 53 µM (inactive)
COC(=O)C1=C(C)N(C)C(C)=C(C(=O)OC)C1c1ccc(F)c(Br)c1,IC50,[14],> 47.1 µM (inactive)
same,EC50,[15],> 53 µM (inactive)
COc1ccc(C)cc1S(=O)(=O)N1CCN(S(=O)(=O)c2cc(C)ccc2OC)CC1,IC50,[14],> 47.1 µM (inactive)
same,EC50,[15],> 53 µM (inactive)
COc1ccc(NC(=O)c2cc3c(=O)n(C)c4ccccc4c3n2C)cc1OC,IC50,H9c2,> 79 µM (inactive)
